For 7 compounds, GI50 and TGI results are on record in PubChem BioAssay (NCI).

Where “and” joins values, the source holds several entries; their conditions need not be identical. Identical values can stand only once.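 Step 1: Grow cells in 96-well plates. Step 2: Expose to compound for 48 hours at 5 concentrations. Step 3: Interpolate endpoints linearly; if unreached, use highest concentration. GI50 is the concentration that inhibits growth by half. TGI denotes the concentration required for complete inhibition of growth.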

Some test systems named below: T-47D breast; MCF7 breast; NCI-H522 lung; OVCAR-8 ovarian; UO-31 renal; KM12 colon; COLO 205 colon; SK-OV-3 ovarian; HCC-2998 colon; RPMI-8226 leukemia.
Holding throughout (experiment): inhibition of tumour cell growth, NCI panel, 48 h

Regarding `CC12CCC(O)CC1=CCC1C2CCC2(C)C(c3cccnc3)=CCC12` (centres undefined), the GI50 in the experiment with T-47D breast, with MCF7 breast, in the experiment with NCI-H522 lung, in the experiment on OVCAR-8 ovarian, in the experiment on UO-31 renal and in the experiment with KM12 colon was > 100 µM throughout. For the same compound, the GI50 was > 100 µM with COLO 205 colon, > 100 µM with SK-OV-3 ovarian, > 100 µM in the experiment on HCC-2998 colon and 39.1 µM in the experiment on RPMI-8226 leukemia. Also, the TGI with T-47D breast, in the experiment with MCF7 breast, with NCI-H522 lung, in the experiment on OVCAR-8 ovarian, in the experiment with UO-31 renal and with KM12 colon was > 100 µM throughout. Also, the TGI in the experiment with COLO 205 colon, in the experiment with SK-OV-3 ovarian, in the experiment with HCC-2998 colon and in the experiment with RPMI-8226 leukemia was > 100 µM throughout.

With `CC/C=C\C[C@H](O)C/C=C1/C(=O)C=C[C@@H]1C/C=C\CCCC(=O)NC`, the GI50 in the experiment with T-47D breast is 2.32 µM; with MCF7 breast it was 0.455 µM; in the experiment with NCI-H522 lung, 1.54 µM; with OVCAR-8 ovarian, 2.4 µM; with UO-31 renal, 1.52 µM; in the experiment on KM12 colon, 1.36 µM. Further, the GI50 is 1.71 µM with COLO 205 colon, 2.9 µM in the experiment with SK-OV-3 ovarian, 1.82 µM in the experiment with HCC-2998 colon and 0.957 µM in the experiment with RPMI-8226 leukemia. The TGI in the experiment on T-47D breast was 12.5 µM; in the experiment on MCF7 breast, 10.7 µM; with NCI-H522 lung, 3.77 µM; in the experiment with OVCAR-8 ovarian it was 10.2 µM; in the experiment with UO-31 renal, 3.35 µM; with KM12 colon it was 2.79 µM. Besides, the TGI in the experiment with COLO 205 colon was determined as 3.93 µM; in the experiment with SK-OV-3 ovarian it was 8.54 µM; in the experiment with HCC-2998 colon, 3.35 µM; in the experiment on RPMI-8226 leukemia, 6 µM.

Take `O=C(c1ccccc1O)c1[nH]c(Cl)c(Cl)c1-n1c(C(=O)c2ccccc2O)cc(Cl)c1Cl`: the GI50 in the experiment on T-47D breast is 0.36 µM and 0.46 µM; with MCF7 breast it was 0.407 µM and 0.258 µM; in the experiment with NCI-H522 lung, 0.317 µM and 0.363 µM; with OVCAR-8 ovarian, 0.643 µM and 0.558 µM; in the experiment with UO-31 renal, 2.6 µM and 2.02 µM; in the experiment on KM12 colon, 1.92 µM and 0.75 µM. Besides, the GI50 in the experiment on COLO 205 colon is 0.703 µM and 0.757 µM; with SK-OV-3 ovarian it was 1.86 µM and 2.31 µM; in the experiment with HCC-2998 colon, 0.994 µM and 0.931 µM; with RPMI-8226 leukemia it was 0.366 µM and 0.265 µM. Besides, the TGI in the experiment with T-47D breast was 3.34 µM and 11.2 µM; in the experiment with MCF7 breast, 10.6 µM and 10.3 µM; in the experiment on NCI-H522 lung it was 1.4 µM and 7.68 µM; with OVCAR-8 ovarian, 10.9 µM and 15.8 µM; in the experiment on UO-31 renal it was 11.4 µM and 6.95 µM; with KM12 colon, 12.1 µM and 11.9 µM. Further, the TGI with COLO 205 colon is 2.47 µM and 3.17 µM; with SK-OV-3 ovarian it was 7.11 µM and 13.1 µM; in the experiment on HCC-2998 colon, 12.7 µM and 11.6 µM; in the experiment with RPMI-8226 leukemia it was 4.21 µM and 1.57 µM.

Turning to `COc1ccc2[nH]c(O)c(/C=c3/ccc4c(c3)N=C(c3ccc(F)cc3)N=4)c2c1`, the GI50 with T-47D breast is 2.01 µM; in the experiment with MCF7 breast, 4.53 µM; in the experiment on NCI-H522 lung, 2.79 µM; in the experiment with OVCAR-8 ovarian, 2.07 µM; in the experiment on UO-31 renal, 1.95 µM; with KM12 colon, 4.54 µM. Moreover, the GI50 in the experiment on COLO 205 colon was 5.13 µM; with SK-OV-3 ovarian it was 2.62 µM; in the experiment on HCC-2998 colon, > 100 µM; with RPMI-8226 leukemia, 3.01 µM. Further, the TGI is 4.99 µM in the experiment with T-47D breast; 93.3 µM in the experiment with MCF7 breast; 8.09 µM in the experiment with NCI-H522 lung; 5.32 µM in the experiment with OVCAR-8 ovarian; 5.01 µM with UO-31 renal; 77.9 µM in the experiment with KM12 colon. Further, the TGI with COLO 205 colon is > 100 µM; with SK-OV-3 ovarian it was 6.06 µM; in the experiment on HCC-2998 colon it was > 100 µM; with RPMI-8226 leukemia, > 100 µM.

As to `Cc1cc(S(N)(=O)=O)c(S/C(=N\Nc2ccc([N+](=O)[O-])cc2)c2ccc3ccccc3c2)cc1Cl`, the TGI was 83.7 µM in the experiment on T-47D breast; > 100 µM in the experiment on MCF7 breast; > 100 µM in the experiment with NCI-H522 lung; > 100 µM with OVCAR-8 ovarian; > 100 µM with UO-31 renal; 99 µM in the experiment with KM12 colon. In addition, the TGI with COLO 205 colon was > 100 µM; with SK-OV-3 ovarian, 55.8 µM; in the experiment with HCC-2998 colon it was 30.1 µM; in the experiment with RPMI-8226 leukemia, > 100 µM. In addition, the GI50 with MCF7 breast was 19.9 µM; in the experiment on NCI-H522 lung, 22.9 µM; with OVCAR-8 ovarian, 14 µM; in the experiment on UO-31 renal, 56 µM; with KM12 colon, 25.2 µM; with COLO 205 colon, 84 µM. Besides, the results for the GI50 in the experiment on SK-OV-3 ovarian, with HCC-2998 colon and in the experiment on RPMI-8226 leukemia were 20.4 µM, 14.7 µM and 37.7 µM, respectively.

Take `COc1ccc(Oc2cc(NCCC(F)(F)F)c3ncc(-c4ccc(C(=O)NC5CC5)c(C)c4)n3n2)c(F)c1F`: the GI50 was 1.9 µM with T-47D breast; 0.822 µM in the experiment on MCF7 breast; 0.381 µM in the experiment with NCI-H522 lung; 0.0738 µM with OVCAR-8 ovarian; 0.355 µM in the experiment with UO-31 renal; 1.44 µM in the experiment on KM12 colon. For the same compound, the GI50 with COLO 205 colon was < 0.0215 µM; in the experiment with SK-OV-3 ovarian, 0.399 µM; in the experiment on HCC-2998 colon, 12.3 µM; with RPMI-8226 leukemia, 0.656 µM. The TGI in the experiment on T-47D breast is > 92.7 µM; in the experiment with MCF7 breast it was > 100 µM; with NCI-H522 lung it was > 64.8 µM; in the experiment with OVCAR-8 ovarian, 26.9 µM; in the experiment with UO-31 renal it was > 53.6 µM; in the experiment on KM12 colon, > 100 µM. The TGI is 50.7 µM in the experiment on COLO 205 colon, 27.2 µM in the experiment on SK-OV-3 ovarian, > 100 µM in the experiment with HCC-2998 colon and > 100 µM in the experiment on RPMI-8226 leukemia.

In the case of `CC(C)(C)OC(=O)NCCCCCCCCCCn1c2c(c3ccccc3c1=O)C(=O)c1ccccc1-2`, the GI50 in the experiment with T-47D breast was > 100 µM; in the experiment on MCF7 breast it was > 100 µM; in the experiment on NCI-H522 lung, 86.1 µM; in the experiment with OVCAR-8 ovarian, 89.9 µM; in the experiment on UO-31 renal, > 100 µM; in the experiment with KM12 colon, > 100 µM. Moreover, the GI50 is > 100 µM with COLO 205 colon, 40.3 µM with SK-OV-3 ovarian, > 100 µM in the experiment on HCC-2998 colon and 79.7 µM with RPMI-8226 leukemia. In addition, the TGI in the experiment with T-47D breast, in the experiment with MCF7 breast, in the experiment on NCI-H522 lung, in the experiment with OVCAR-8 ovarian, with UO-31 renal and in the experiment on KM12 colon was > 100 µM each time. The TGI in the experiment with COLO 205 colon, with SK-OV-3 ovarian, in the experiment on HCC-2998 colon and in the experiment on RPMI-8226 leukemia was > 100 µM each time.
